Data set [1] concerns HepG2 cells. Kind of data set: cell viability test (MTT), concentration corresponding to an IC80. It counts as cell-based. From the text:
(§1) HepG2 cells are then individually treated with different compounds with different levels of toxicity.

Data set [2] concerns HepG2 cells. The data set can be described thus: hybridization of probes from treated HepG2 cells on filters with clones from qualitative screening of p53-induced apoptosis (toxicity index). The conditions noted are these: HepG2 cells treated at IC80 concentration, p53 apoptosis filter. The class given is cell-based.
Description: as §1

Setting [3] is: HepG2 cells, exposure time 18 h.
The mark [4] stands for this setting: HepG2 cells, exposure time 18 h, read-out: Concentration (calculated by cell viability test MTT, corresponds to an IC80).

Structures are written as SMILES. Like-named read-outs stand apart in the source and are kept apart here. Numbered stars: 1 amine (or outer) side, 2 acyl side, 3 side chain; on linkers, the order of the positions; unused ones are H or OH. Bridge positions count the residues as written; N and C are the ends. Square brackets hold non-standard residues; d marks the D form. Peptide text beside a SMILES is read from it. I, II: the chains in the order shown. Actinocin(9to1) = Cc1c2oc3c(C)ccc(C(=O)[*:1])c3nc-2c(C(=O)[*:2])c(N)c1=O; NMeV = CN[C@H](C(=O)O)C(C)C; Sar = CNCC(=O)O

Turning to `CCCCCCCCCCCCCC(=O)O[C@@H]1[C@@H](C)[C@@]2(O)[C@@H](C=C(CO)C[C@]3(O)C(=O)C(C)=C[C@@H]23)[C@@H]2C(C)(C)[C@]12OC(C)=O` [PMA], the “Concentration (calculated by cell viability test MTT, corresponds to an IC80)” value with HepG2 cells [1] (setting [3]) is 1 µg/mL.

Compound `N#CC(C#N)=NNc1ccc(OC(F)(F)F)cc1` [FCCP] had an IC80 in the data set with HepG2 cells [1] of 5000 nM.

Consider `O=C(O)Cc1ccccc1Nc1c(Cl)cccc1Cl` [Diclofenac], for which the “splicing events identical to those induced by p53-related toxicity (toxicity index, FIG. 2)” value with HepG2 cells [2] is recorded as “generates more splicing events identical to those induced by p53-related toxicity than aspirin”.

On to `CN[C@@H]1C[C@H]2O[C@@](C)([C@@H]1OC)n1c3ccccc3c3c4c(c5c6ccccc6n2c5c31)C(=O)NC4` [Staurosporine], for which the IC80 with HepG2 cells [1] (setting [4]) was 50 nM.

As to `Cc1c2oc3c(C)ccc(C(=O)N[C@@H]4C(=O)N[C@H](C(C)C)C(=O)N5CCC[C@H]5C(=O)N(C)CC(=O)N(C)[C@@H](C(C)C)C(=O)O[C@@H]4C)c3nc-2c(C(=O)N[C@@H]2C(=O)N[C@H](C(C)C)C(=O)N3CCC[C@H]3C(=O)N(C)CC(=O)N(C)[C@@H](C(C)C)C(=O)O[C@@H]2C)c(N)c1=O` [Actinomycin D] (I: T[dV]P[Sar][NMeV] / II: T[dV]P[Sar][NMeV]; ester I:1-I:C, II:1-II:C; linker I:N-II:N via Actinocin(9to1)), the “Concentration (calculated by cell viability test MTT, corresponds to an IC80)” value in the data set with HepG2 cells [1] (setting [3]) is 0.02 µg/mL.

As to `C[C@@H]1C[C@@H]([C@H](O)CC2CC(=O)NC(=O)C2)C(=O)[C@@H](C)C1` [Cycloheximide], the “Concentration (calculated by cell viability test MTT, corresponds to an IC80)” value in the data set with HepG2 cells [1] (setting [3]) is 5 µg/mL.

`OO` [H2O2]: the IC80 with HepG2 cells [1] (setting [4]) was 100000 nM.

With `O=c1[nH]cc(F)c(=O)[nH]1` [5 FU], in the data set on HepG2 cells [1], the IC80 came to 10000 nM.

In the case of `C[C@H]1C[C@H]2[C@@H]3CCC4=CC(=O)C=C[C@]4(C)[C@@]3(Cl)[C@@H](O)C[C@]2(C)[C@@]1(O)C(=O)CO` [Beclomethazone], the IC80 in the data set on HepG2 cells [1] (setting [4]) was 50 nM.

For the compound `CC(C)[C@@H]1NC(=O)[C@H](C)OC(=O)[C@@H](C(C)C)NC(=O)[C@@H](C(C)C)OC(=O)[C@H](C(C)C)NC(=O)[C@H](C)OC(=O)[C@@H](C(C)C)NC(=O)[C@@H](C(C)C)OC(=O)[C@H](C(C)C)NC(=O)[C@H](C)OC(=O)[C@@H](C(C)C)NC(=O)[C@@H](C(C)C)OC1=O` [Valinomycin], the IC80 in the data set on HepG2 cells [1] (setting [4]) was 15 nM.

The values are drawn from patent publication US20030059788A1, “Genetic markers of toxicity, preparation and uses thereof” (priority 2002, published 2003).
